Data as given in PMC10740580, “Benzothiazole-Phthalimide Hybrids as Anti-Breast Cancer and Antimicrobial Agents” (Antibiotics, 2023).
Converted amounts (≈) assume the structure as drawn.

Tests used:
Type in all cases: cell-based
Candida albicans 10231 = test: Antifungal microdilution, C. albicans ATCC 10231; details: microdilution CLSI M27-A3, 48 h, 37 °C
Experimental: (§1) In accordance with CLSI guidelines, compounds 3a–h were tested against a variety of fungal strains (Candida albicans 10231, Candida albicans 90028, Candida glabrata 15126, and Candida parapsilosis 22019) belonging to the ATCC collection. Amphotericin B was utilized as a reference drug. A similar trend of results, or even better than that obtained against bacteria, was assessed against fungal strains. […] Also, in this case, compound 3h emerged as the best of the series, with MICs of 16 μg/mL against Candida glabrata and Candida parapsilosis strains and 32 μg/mL against Candida albicans strains.
(§2) A microdilution technique described by the Clinical and Laboratory Standards Institute (CLSI, M27-A3) was used to assess the antifungal activity. The following fungal strains, belonging to the ATCC collection and available as freeze-dried discs, were used: C. albicans ATCC 10231, C. albicans ATCC 90028, C. glabrata ATCC 15126, and C. parapsilosis ATCC 22019. Stock solutions were prepared and preserved with purity as previously described for the antibacterial studies. Each yeast strain’s pre-cultures were made in Sabouraud broth (SAB) and allowed to grow until they stopped at 37 °C. By using a spectrophotometric technique (530 nm, range 0.12–0.15), the turbidity of the yeast stock suspension was calibrated to 0.5 McFarland Standard. Next, the standardized suspension was diluted first at 1:50 with SAB and then at 1:20 in the same medium to have […]. A total of 100 µL of inoculum was seeded into each well. As a control for growth, several wells containing only inoculated broth were prepared. The plates were incubated for 48 h at 37 °C, and the MIC values were calculated as the final well with no fungal growth. […] MIC values were observed based on the absence of fungal growth in the final well. The MICs were calculated by conducting the antifungal test three times in duplicate. As a control, amphotericin B was used.

Candida glabrata 15126 = test: Antifungal microdilution, C. glabrata ATCC 15126; details: Nakaseomyces glabratus, microdilution CLSI M27-A3, 48 h, 37 °C, read-out: MIC C.g. 15126
Experimental: as §1, §2

[1] = system: Staphylococcus aureus 29213; test: Broth microdilution, S. aureus ATCC 29213; details: 24 h, 37 °C
Description: (§3) Compounds 3a–h were examined in accordance with the Clinical Laboratory Standards Institute (CLSI) recommendations, by means of the broth microdilution method, against gram-positive bacteria (Staphylococcus aureus 25923, Staphylococcus aureus 29213, Staphylococcus aureus 43300, Enterococcus faecalis 29212) and gram-negative bacteria (Escherichia coli 25922, Klebsiella pneumoniae 13883, Pseudomonas aeruginosa 27853) belonging to the ATCC collection, using levofloxacin as a reference drug. Table 3 lists the results, expressed as MIC (µg/mL). […] The lack of activity observed for compound 3d could be conceivably due to its poor solubility in the culture medium containing the inoculum.
(§4) Following the recommendations of the CLSI (Clinical and Laboratory Standards Institute, 2012), the broth microdilution method was used to determine the in vitro minimum inhibitory concentrations (MICs, µg/mL).. The concentration of the investigated compounds was set to its highest value to create stock solutions. Then, the stock solutions were diluted 1:10 with Cation-Adjusted Mueller Hinton Broth (Oxoid, Milan, Italy). After that, a series of concentrations from 512 µg/mL to […] were obtained in the wells by performing two-fold serial dilutions in the appropriate test medium. The diluent used to create the stock solution was 100% DMSO. We used the following bacterial strains from the ATCC collection that were available as freeze-dried discs: gram-positive strains such as S. aureus ATCC 25923, 29213, and 43300, and E. faecalis ATCC 29212, and gram-negative ones such as E. coli ATCC 25922, K. pneuomoniae ATCC 13883, and P. aeruginosa ATCC 27853. To preserve the purity of cultures and to allow their reproducibility, cryovials of all microbial strains were set up in the medium and stored at −80 °C. Mueller Hinton Broth (MHB) was used to prepare pre-cultures of each bacterial strain, which were then incubated for 3–5 h at 37 °C. In accordance with CLSI procedure M7-A9, the turbidity of the bacterial cell suspension was calibrated to 0.5 McFarland Standard using a spectrophotometric approach (OD625 nm 0.08–0.10). The standardized suspension was then further diluted (1:100) with MHB to reach 1–2 × 10^6 CFU/mL. A 200 µL aliquot of the final inoculum was inserted into each well. As a control for growth, several wells containing only inoculated broth were prepared. The plates were incubated at 37 °C for 24 h, and the MIC values were calculated as the lowest concentration of compounds at which there was no optically detectable bacteria growth. Each experiment was carried out in duplicate and repeated twice to determine the MICs. Levofloxacin served as the study’s standard reference antibiotic. Additionally, the antibacterial activity of DMSO alone (used as a diluent for the investigated compounds) was examined; therefore, volumes of this solvent with a concentration of less than 5% were utilized throughout the experimentation.

[2] = system: Staphylococcus aureus 25923; test: Broth microdilution, S. aureus ATCC 25923; details: 37 °C; for MIC: Staphylococcus aureus, 25923, 24 h
Description: as §3, §4

MIC (Candida albicans 10231)	MIC (Candida glabrata 15126)	MIC [1]	MIC [2]	Compound	MIC S.a. 25923 ([2]; 24 h)
64 µg/mL (≈ 228 µM)	32 µg/mL (≈ 114 µM)	64 µg/mL (≈ 228 µM)	64 µg/mL (≈ 228 µM)	O=C1c2ccccc2C(=O)N1c1nc2ccccc2s1 [3a, 2-(1,3-benzothiazol-2-yl)-1H-isoindole-1,3(2H)-dione]	
64 µg/mL (≈ 215 µM)	32 µg/mL (≈ 107 µM)	64 µg/mL (≈ 215 µM)	64 µg/mL (≈ 215 µM)	O=C1c2ccccc2C(=O)N1c1nc2ccc(F)cc2s1 [3b, 2-(6-Fluoro-1,3-benzothiazol-2-yl)-1H-isoindole-1,3(2H)-dione]	
64 µg/mL (≈ 184 µM)	64 µg/mL (≈ 184 µM)	128 µg/mL (≈ 367 µM)	128 µg/mL (≈ 367 µM)	O=C1c2ccccc2C(=O)N1c1nc2ccc(C(F)(F)F)cc2s1 [3c, 2-[6-Trifluoromethyl-1,3-benzothiazol-2-yl]-1H-isoindole-1,3(2H)-dione]	
> 512 µg/mL	> 512 µg/mL	> 512 µg/mL	> 512 µg/mL	Cc1ccc2nc(N3C(=O)c4ccccc4C3=O)sc2c1 [3d, 2-[6-Methyl-1,3-benzothiazol-2-yl]-1H-isoindole-1,3(2H)-dione]	

More lines, now with the values behind:

Compound	MIC (Candida albicans 10231)	MIC (Candida glabrata 15126)	MIC [1]	MIC [2]	MIC S.a. 25923 ([2]; 24 h)
COc1ccc2nc(N3C(=O)c4ccccc4C3=O)sc2c1 [3e, 2-[6-Methoxy-1,3-benzothiazol-2-yl]-1H-isoindole-1,3(2H)-dione]	64 µg/mL (≈ 206 µM)	64 µg/mL (≈ 206 µM)	64 µg/mL (≈ 206 µM)	32 µg/mL (≈ 103 µM)	
COc1cc2nc(N3C(=O)c4ccccc4C3=O)sc2cc1OC [3f, 2-[5,6-Dimethoxy-1,3-benzothiazol-2-yl]-1H-isoindole-1,3(2H)-dione]	32 µg/mL (≈ 94 µM)	32 µg/mL (≈ 94 µM)	64 µg/mL (≈ 188 µM)	32 µg/mL (≈ 94 µM)	
O=C1c2ccccc2C(=O)N1c1nc2ccc(O)cc2s1 [3g, 2-[6-Hydroxy-1,3-benzothiazol-2-yl]-1H-isoindole-1,3(2H)-dione]	32 µg/mL (≈ 108 µM)	32 µg/mL (≈ 108 µM)	64 µg/mL (≈ 216 µM)	32 µg/mL (≈ 108 µM)	
O=C1c2ccccc2C(=O)N1c1nc2ccc(Oc3ccccc3)cc2s1 [3h, 2-[6-Phenoxy-1,3-benzothiazol-2-yl]-1H-isoindole-1,3(2H)-dione]	32 µg/mL (≈ 85.9 µM)	16 µg/mL (≈ 43 µM)	32 µg/mL (≈ 85.9 µM)	16 µg/mL (≈ 43 µM)	16 µg/mL (≈ 43 µM)
